Values of other authors, collected in article PMC10056443, “Derivatives of Amaryllidaceae Alkaloid Ambelline as Selective Inhibitors of Hepatic Stage of Plasmodium berghei Infection In Vitro” (Pharmaceutics, 2023).

Tests used:
[1] = system: chloroquine-sensitive 3D7 strain; parameters: method as in doi:10.21577/0103-5053.20190061; conditions: cited from earlier work
[2] = system: multidrug-resistant K1 strain; parameters: method as in doi:10.21577/0103-5053.20190061; conditions: cited from earlier work

O[C@H]1[C@H]2c3cc4c(cc3CN3CCC(=C[C@@H]1O)[C@H]23)OCO4 [compound 6, lycorine]
IC50 [1]: 2500 nM | IC50 [2]: 3100 nM
